Results on 6 compounds are retold here after publication PMC10777911, “A Potent PDK4 Inhibitor for Treatment of Heart Failure with Reduced Ejection Fraction” (Cells, 2023).

Values after ≈ are worked out from the molar mass of the structure shown.

As usually defined, the melting point is the temperature of the solid-liquid transition.

For data set [1], the target named is T1, Full-length human PDK4 (GST-fusion) (Homo sapiens, UniProt Q16654).
T1 construct: GST (Glutathione S-transferase) (N); made in house; host or cells: E. coli
In words: Off-chip mobility shift assay (MSA) for PDK4 inhibition. It counts as biochemical. The note with it: at 10 µg/mL of each inhibitor; for inhibition at 10 µg/mL: read-out: PDK4 Inhibitory Activity (%). The method, then:
Full-length human PDK4 [amino acids 1-411 of accession number NP_002603.1] was expressed as an N-terminal Glutathione S-transferase (GST)-fusion protein (73 kDa) using an E. coli expression system. GST-PDK4 was purified using glutathione affinity chromatography.
Derivatives were dissolved in dimethyl sulfoxide (DMSO) and further diluted in DMSO to prepare a solution with a 100-fold higher concentration than the test sample solution. This solution was further diluted 25-fold in assay buffer (20 mM 4-(2-hydroxyethyl)-1-piperazineethanesulfonic acid (HEPES), 0.01% Triton X-100, 2 mM dithiothreitol (DTT), pH 7.5) to make a test sample solution. The positive control substance solution was prepared the same way.
(1) 5µL of test sample solution, 5 µL of substrate/ATP/metal solution in assay buffer (20 mM HEPES, 0.01% Triton X-100, 2 mM DTT, pH 7.5), and 10 µL of kinase solution in assay buffer prepared in assay buffer were mixed in the wells of a 384-well polypropylene plate and allowed to react for 5 h at room temperature. (2) The reaction was stopped by adding 70 µL of Termination Buffer (QuickScout Screening Assist MSA; Carna Biosciences). (3) Substrate peptides and phosphorylated peptides in the reaction solution were separated and quantified using the LabChip system (Perkin Elmer, Shelton, CT, USA). (4) The product ratio (P/(P+S)) was calculated from the substrate peptide peak height (S) and the phosphorylated peptide peak height (P) of the kinase reaction.
The average signal in control wells containing all reaction components was considered to be 0% inhibition. The average signal in background wells (without enzyme) was considered as 100% inhibition, and the % inhibition was calculated from the average signal in each test sample well.

The subject of data set [2] is TAC mice (heart failure with reduced EF). In words: Transverse aortic constriction (TAC) heart failure model, echocardiography. It counts as in vivo, mouse (C57BL/6J). The note with it: 2.8 mg/kg i.p. once daily for 1 week, compared to DCA. The method, then:
C57BL/6J mice were purchased from Japan SLC, Inc. (Hamamatsu, Japan) and Takasugi Experimental Animals Supply Co., Ltd. (Kasukabe, Japan), and were kept under a 12 h light–dark schedule. All animal handling procedures in this study complied with the Jichi Medical University Guide for Laboratory Animals and the ARRIVE guidelines. The Institutional Animal Care and Concern Committee at Jichi Medical University approved all experimental protocols. This study used 8-week-old male mice.
Mice were intubated prior to surgery and were maintained under assisted ventilation on a heating pad throughout the procedure. Under a microscope, a midline incision was made on the skin from the neckline to the mid-chest level. A partial thoracotomy was made through the second rib, and the sternum was retracted to aid visualization of the aorta. After periaortic tissue was removed, a 27-G blunt needle was placed in parallel along the transverse aorta, and the suture was tied over the needle between the innominate artery and the left common carotid. Then, the rib cage was closed, followed by closure of the skin. […] Mice were kept in a heating unit until they recovered completely from anesthesia.
At weeks 0, 4, and 5 after TAC induction, mice were anesthetized with 1.5% isoflurane and secured on an animal handling and physiological monitoring system in the supine position. Images were captured with a 30 MHz probe attached to a Vevo 2100 (VisualSonics, Toronto, ON, Canada). Heart rate was maintained at 400 to 500 bpm, and the temperature of the system was kept at 37 °C while echocardiographic images were captured. The ejection fraction was calculated using the Vevo2100 system based on the Teichholz method.
Four weeks after the TAC surgery, mice with an EF less than 55 were subjected to injection. Then, 2.8 mg/kg of compound 8 or DCA in 5% DMSO in saline or 5% DMSO in saline was injected peritoneally every day for 7 days.
(§1) With five synthesized Vitamin K3 derivatives, their in vitro PDK4 inhibitory activity and cytotoxicity were evaluated. In vitro activities were tested using fluorescently labeled PDH by measuring phosphorylated and unphosphorylated PDH of the derivatives using a CCD camera. For cytotoxicity, IC50 values were calculated by adding the derivatives to the human fibroblast culture medium and monitoring growth inhibition. Then, we evaluated the efficacy of novel PDK4 inhibitor candidates in the treatment of heart failure. The transverse aorta of wild-type mice was constricted to induce a pressure overload in the left ventricle, and the ejection fraction (EF) was postoperatively measured at 4 weeks. Subsequently, 2.8 mg/kg of each derivative was intraperitoneally administered to mice once daily for 1 week to evaluate improvement in EF values.

The test system of data set [3] is human fibroblast cells. In words: Cytotoxicity assay against human fibroblast cells (growth inhibition). To be noted: human fibroblasts, read-out: Toxicity (IC50), half-maximal inhibitory concentration to inhibit fibroblast growth. It counts as cell-based. The method, then: Wild-type fibroblasts obtained from a volunteer expressing [F352F + V368V] (FV–FV alleles), purchased from RIKEN Cell Bank (Tsukuba, Japan), were used, and the cytotoxicity assay was carried out as described in the previous paper.
as §1

Data set [4] relates to PDK4. More on the design: method as in PMID 24865588. The note with it: previous study; read-out: IC50 of PDK4 inhibition; cited from earlier work.

T1 sequence (Q16654 whole entry, the tested form may be a part): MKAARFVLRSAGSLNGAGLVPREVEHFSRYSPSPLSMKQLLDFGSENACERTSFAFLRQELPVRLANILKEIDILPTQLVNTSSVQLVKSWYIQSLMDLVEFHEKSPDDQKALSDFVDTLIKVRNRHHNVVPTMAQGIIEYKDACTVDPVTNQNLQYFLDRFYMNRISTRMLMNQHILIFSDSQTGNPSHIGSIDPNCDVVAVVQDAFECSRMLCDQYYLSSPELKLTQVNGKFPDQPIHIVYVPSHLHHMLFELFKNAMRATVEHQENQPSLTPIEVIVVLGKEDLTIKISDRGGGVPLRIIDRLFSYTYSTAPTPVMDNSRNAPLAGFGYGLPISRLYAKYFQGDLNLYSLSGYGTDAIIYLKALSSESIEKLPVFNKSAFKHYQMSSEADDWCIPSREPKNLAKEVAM

On to `COC(=O)c1ccc2c(c1)C(=O)C(C)=CC2=O` [Compound 5], for which the inhibition at 10 µg/mL in data set [1] turned out to be 34.6%. Moreover, in data set [2], the “Change in EF (EF5/EF4) after a week of daily injection” value (“Change in EF (EF5/EF4) after a week” for short) is recorded as “improve”. In addition, the IC50 in data set [3] is 8 µg/mL (≈ 34.7 µM).
The corresponding values for `COC(=O)c1ccc2c(c1)C(=O)C=C(C)C2=O` [Compound 11] are 65.4%, “improve” and 7 µg/mL (≈ 30.4 µM).
On to `CC1=CC(=O)c2cc(C(=O)NCC(=O)O)ccc2C1=O` [Compound 13a], for which the melting point was 163 to 163.2 °C. Besides, the inhibition at 10 µg/mL in data set [1] worked out at 66.8%. In addition, in data set [2], the “Change in EF (EF5/EF4) after a week” value was “improve”. For the same compound, the IC50 in data set [3] was > 110 µg/mL.
As to `CC1=CC(=O)c2cc(C(=O)N[C@@H](CO)C(=O)O)ccc2C1=O` [Compound 13b], the melting point lay within 166.6 to 166.8 °C. Moreover, in data set [1], the inhibition at 10 µg/mL is 63.2%. Besides, the “Change in EF (EF5/EF4) after a week” value in data set [2] was “improve”. For the same compound, the IC50 in data set [3] was > 99 µg/mL.
`O=C(O)C(Cl)Cl` [DCA, dichloroacetic acid]: in data set [4], the IC50 was 57.8 µM.
For `CC1=CC(=O)c2ccccc2C1=O` [Vitamin K3, reference compound], in data set [1], the “PDK4 Inhibitory Activity (%)” value is on record as 65.9% and the inhibition at 10 µg/mL is 66%. Besides, in data set [3], the IC50 worked out at 18 µg/mL (≈ 105 µM).
